Measured values: ChEMBL document CHEMBL4665869, “New thiazolopyrimidine as anticancer agents: Synthesis, biological evaluation, DNA binding, molecular modeling and ADMET study” (Bioorg Med Chem Lett, 2020)
Values after ≈ are worked out from the molar mass of the structure shown.

Experiments:
LOX IMVI = test: Growth inhibition of human LOX IMVI cells at 10 uM relative to control; type: functional; conditions: read-out: GI
MDA-MB-468 = test: Growth inhibition of human MDA-MB-468 cells at 10 uM relative to control; type: functional; conditions: read-out: GI
T47D = test: Growth inhibition of human T47D cells at 10 uM relative to control; type: functional; conditions: read-out: GI
CCRF-CEM = test: Growth inhibition of human CCRF-CEM cells at 10 uM relative to control; type: functional; conditions: read-out: GI
HL-60(TB) = test: Growth inhibition of human HL-60(TB) cells at 10 uM relative to control; type: functional; conditions: read-out: GI
K562 = test: Growth inhibition of human K562 cells at 10 uM relative to control; type: functional; conditions: read-out: GI
MOLT-4 = test: Growth inhibition of human MOLT-4 cells at 10 uM relative to control; type: functional; conditions: read-out: GI
RPMI-8226 = test: Growth inhibition of human RPMI-8226 cells at 10 uM relative to control; type: functional; conditions: read-out: GI
SR = test: Growth inhibition of human SR cells at 10 uM relative to control; type: functional; conditions: read-out: GI
A549 = test: Growth inhibition of human A549 cells at 10 uM relative to control; type: functional; conditions: read-out: GI
HOP-62 = test: Growth inhibition of human HOP-62 cells at 10 uM relative to control; type: functional; conditions: read-out: GI
HOP-92 = test: Growth inhibition of human HOP-92 cells at 10 uM relative to control; type: functional; conditions: read-out: GI
NCI-H226 = test: Growth inhibition of human NCI-H226 cells at 10 uM relative to control; type: functional; conditions: read-out: GI
NCI-H23 = test: Growth inhibition of human NCI-H23 cells at 10 uM relative to control; type: functional; conditions: read-out: GI
NCI-H322M = test: Growth inhibition of human NCI-H322M cells at 10 uM relative to control; type: functional; conditions: read-out: GI
NCI-H460 = test: Growth inhibition of human NCI-H460 cells at 10 uM relative to control; type: functional; conditions: read-out: GI
NCI-H522 = test: Growth inhibition of human NCI-H522 cells at 10 uM relative to control; type: functional; conditions: read-out: GI
SW-620 = test: Growth inhibition of human SW-620 cells at 10 uM relative to control; type: functional; conditions: read-out: GI
COLO 205 = test: Growth inhibition of human COLO 205 cells at 10 uM relative to control; type: functional; conditions: read-out: GI
HCC 2998 = test: Growth inhibition of human HCC 2998 cells at 10 uM relative to control; type: functional; conditions: read-out: GI
HCT-116 = test: Growth inhibition of human HCT-116 cells at 10 uM relative to control; type: functional; conditions: read-out: GI
HCT-15 = test: Growth inhibition of human HCT-15 cells at 10 uM relative to control; type: functional; conditions: read-out: GI
HT-29 = test: Growth inhibition of human HT-29 cells at 10 uM relative to control; type: functional; conditions: read-out: GI
KM12 = test: Growth inhibition of human KM12 cells at 10 uM relative to control; type: functional; conditions: read-out: GI
SF-268 = test: Growth inhibition of human SF-268 cells at 10 uM relative to control; type: functional; conditions: read-out: GI
SF-295 = test: Growth inhibition of human SF-295 cells at 10 uM relative to control; type: functional; conditions: read-out: GI
SF-539 = test: Growth inhibition of human SF-539 cells at 10 uM relative to control; type: functional; conditions: read-out: GI
SNB-19 = test: Growth inhibition of human SNB-19 cells at 10 uM relative to control; type: functional; conditions: read-out: GI
SNB-75 = test: Growth inhibition of human SNB-75 cells at 10 uM relative to control; type: functional; conditions: read-out: GI
U-251 = test: Growth inhibition of human U-251 cells at 10 uM relative to control; type: functional; conditions: read-out: GI
Malme-3M = test: Growth inhibition of human Malme-3M cells at 10 uM relative to control; type: functional; conditions: read-out: GI
M14 = test: Growth inhibition of human M14 cells at 10 uM relative to control; type: functional; conditions: read-out: GI
MDA-MB-435 = test: Growth inhibition of human MDA-MB-435 cells at 10 uM relative to control; type: functional; conditions: read-out: GI
SK-MEL-2 = test: Growth inhibition of human SK-MEL-2 cells at 10 uM relative to control; type: functional; conditions: read-out: GI
SK-MEL-28 = test: Growth inhibition of human SK-MEL-28 cells at 10 uM relative to control; type: functional; conditions: read-out: GI
SK-MEL-5 = test: Growth inhibition of human SK-MEL-5 cells at 10 uM relative to control; type: functional; conditions: read-out: GI
UACC-62 = test: Growth inhibition of human UACC-62 cells at 10 uM relative to control; type: functional; conditions: read-out: GI
IGROV-1 = test: Growth inhibition of human IGROV-1 cells at 10 uM relative to control; type: functional; conditions: read-out: GI
OVCAR-4 = test: Growth inhibition of human OVCAR-4 cells at 10 uM relative to control; type: functional; conditions: read-out: GI
OVCAR-5 = test: Growth inhibition of human OVCAR-5 cells at 10 uM relative to control; type: functional; conditions: read-out: GI
OVCAR-8 = test: Growth inhibition of human OVCAR-8 cells at 10 uM relative to control; type: functional; conditions: read-out: GI
NCI/ADR-RES = test: Growth inhibition of human NCI/ADR-RES cells at 10 uM relative to control; type: functional; conditions: read-out: GI
SK-OV-3 = test: Growth inhibition of human SK-OV-3 cells at 10 uM relative to control; type: functional; conditions: read-out: GI
786-0 = test: Growth inhibition of human 786-0 cells at 10 uM relative to control; type: functional; conditions: read-out: GI
A498 = test: Growth inhibition of human A498 cells at 10 uM relative to control; type: functional; conditions: read-out: GI
ACHN = test: Growth inhibition of human ACHN cells at 10 uM relative to control; type: functional; conditions: read-out: GI
CAKI-1 = test: Growth inhibition of human CAKI-1 cells at 10 uM relative to control; type: functional; conditions: read-out: GI
RXF 393 = test: Growth inhibition of human RXF 393 cells at 10 uM relative to control; type: functional; conditions: read-out: GI
SN12C = test: Growth inhibition of human SN12C cells at 10 uM relative to control; type: functional; conditions: read-out: GI
TK-10 = test: Growth inhibition of human TK-10 cells at 10 uM relative to control; type: functional; conditions: read-out: GI
UO-31 = test: Growth inhibition of human UO-31 cells at 10 uM relative to control; type: functional; conditions: read-out: GI
PC-3 = test: Growth inhibition of human PC-3 cells at 10 uM relative to control; type: functional; conditions: read-out: GI
DU-145 = test: Growth inhibition of human DU-145 cells at 10 uM relative to control; type: functional; conditions: read-out: GI
MCF7 = test: Growth inhibition of human MCF7 cells at 10 uM relative to control; type: functional; conditions: read-out: GI
MDA-MB-231 = test: Growth inhibition of human MDA-MB-231 cells at 10 uM relative to control; type: functional; conditions: read-out: GI
Hs-578T = test: Growth inhibition of human Hs-578T cells at 10 uM relative to control; type: functional; conditions: read-out: GI
BT-549 = test: Growth inhibition of human BT-549 cells at 10 uM relative to control; type: functional; conditions: read-out: GI
DNA = test: Displacement of methyl green from DNA (unknown origin) assessed as DNA intercalation after 24 hrs by colorimetric assay; type: nucleic-acid assay

SMILES: COc1ccc(/C=C/C2=CC(c3ccc(OC)c(OC)c3)N3C(C)=CSC3=N2)cc1OC (stereo not drawn)
- inhibition of growth at 10 µM (LOX IMVI): < 10%
- inhibition of growth at 10 µM (MDA-MB-468): < 10%
- inhibition of growth at 10 µM (T47D): < 10%
- inhibition of growth at 10 µM (CCRF-CEM): < 10%
- inhibition of growth at 10 µM (HL-60(TB)): < 10%
- inhibition of growth at 10 µM (K562): < 10%
- inhibition of growth at 10 µM (MOLT-4): < 10%
- inhibition of growth at 10 µM (RPMI-8226): < 10%
- inhibition of growth at 10 µM (SR): < 10%
- inhibition of growth at 10 µM (A549): < 10%
- inhibition of growth at 10 µM (HOP-62): < 10%
- inhibition of growth at 10 µM (HOP-92): 18%
- inhibition of growth at 10 µM (NCI-H226): < 10%
- inhibition of growth at 10 µM (NCI-H23): < 10%
- inhibition of growth at 10 µM (NCI-H322M): < 10%
- inhibition of growth at 10 µM (NCI-H460): < 10%
- inhibition of growth at 10 µM (NCI-H522): < 10%
- inhibition of growth at 10 µM (SW-620): < 10%
- inhibition of growth at 10 µM (COLO 205): < 10%
- inhibition of growth at 10 µM (HCC 2998): < 10%
- inhibition of growth at 10 µM (HCT-116): < 10%
- inhibition of growth at 10 µM (HCT-15): < 10%
- inhibition of growth at 10 µM (HT-29): < 10%
- inhibition of growth at 10 µM (KM12): < 10%
- inhibition of growth at 10 µM (SF-268): < 10%
- inhibition of growth at 10 µM (SF-295): < 10%
- inhibition of growth at 10 µM (SF-539): < 10%
- inhibition of growth at 10 µM (SNB-19): < 10%
- inhibition of growth at 10 µM (SNB-75): < 10%
- inhibition of growth at 10 µM (U-251): < 10%
- inhibition of growth at 10 µM (Malme-3M): < 10%
- inhibition of growth at 10 µM (M14): < 10%
- inhibition of growth at 10 µM (MDA-MB-435): < 10%
- inhibition of growth at 10 µM (SK-MEL-2): < 10%
- inhibition of growth at 10 µM (SK-MEL-28): < 10%
- inhibition of growth at 10 µM (SK-MEL-5): < 10%
- inhibition of growth at 10 µM (UACC-62): < 10%
- inhibition of growth at 10 µM (IGROV-1): < 10%
- inhibition of growth at 10 µM (OVCAR-4): < 10%
- inhibition of growth at 10 µM (OVCAR-5): < 10%
- inhibition of growth at 10 µM (OVCAR-8): < 10%
- inhibition of growth at 10 µM (NCI/ADR-RES): < 10%
- inhibition of growth at 10 µM (SK-OV-3): < 10%
- inhibition of growth at 10 µM (786-0): < 10%
- inhibition of growth at 10 µM (A498): 17.6%
- inhibition of growth at 10 µM (ACHN): < 10%
- inhibition of growth at 10 µM (CAKI-1): < 10%
- inhibition of growth at 10 µM (RXF 393): < 10%
- inhibition of growth at 10 µM (SN12C): < 10%
- inhibition of growth at 10 µM (TK-10): < 10%
- inhibition of growth at 10 µM (UO-31): 11.7%
- inhibition of growth at 10 µM (PC-3): < 10%
- inhibition of growth at 10 µM (DU-145): < 10%
- inhibition of growth at 10 µM (MCF7): < 10%
- inhibition of growth at 10 µM (MDA-MB-231): < 10%
- inhibition of growth at 10 µM (Hs-578T): < 10%
- inhibition of growth at 10 µM (BT-549): < 10%
- IC50 (DNA): 72.54 µg/mL (≈ 161 µM)
